One assay concerns the target T1, Kv1.3 potassium channel (Homo sapiens, UniProt P22001).
T1 construct: expressed in transfected cells
Description: Kv1.3 potassium channel blocker activity, automated whole-cell patch clamp (Patchliner). In kind it is cell-based. The protocol:
This assay is used to evaluate the disclosed compounds' activities as Kv1.3 potassium channel blockers.
CHO-K1 cells stably expressing Kv1.3 were grown in DMEM containing 10% heat-inactivated FBS, 1 mM sodium pyruvate, 2 mM L-glutamine and G418 (500 μg/ml). Cells were grown in culture flasks at 37° C. in a 5% CO2-humidified incubator.
(§1) The cells were bathed in an extracellular solution containing 140 mM NaCl, 4 mM KCl, 2 mM CaCl2), 1 mM MgCl2, 5 mM glucose, and 10 mM HEPES; pH adjusted to 7.4 with NaOH; 295-305 mOsm. The internal solution contained 50 mM KCl, 10 mM NaCl, 60 mM KF, 20 mM EGTA, and 10 mM HEPES; pH adjusted to 7.2 with KOH; 285 mOsm. All compounds were dissolved in DMSO at 30 mM. Compound stock solutions were freshly diluted with external solution to concentrations of 30 nM, 100 nM, 300 nM, 1 μM, 3 μM, 10 μM, 30 μM and 100 μM. The highest content of DMSO (0.3%) was present in 100 μM.
The currents were evoked by applying 100 ms depolarizing pulses from −90 mV (holding potential) to +40 mV were applied with 0.1 Hz frequency. Control (compound-free) and compound pulse trains for each compound concentration applied contained 20 pulses.
10-second breaks were used between pulse trains (see Table 2 below).
Whole-cell current recordings and compound application were enabled by means of an automated patch clamp platform Patchliner (Nanion Technologies GmbH). EPC 10 patch clamp amplifier (HEKA Elektronik Dr. Schulze GmbH) along with Patchmaster software (HEKA Elektronik Dr. Schulze GmbH) was used for data acquisition. Data were sampled at 10 kHz without filtering. Passive leak currents were subtracted online using a P/4 procedure (HEKA Elektronik Dr. Schulze GmbH). Increasing compound concentrations were applied consecutively to the same cell without washouts in between. Total compound incubation time before the next pulse train was not longer than 10 seconds. Peak current inhibition was observed during compound equilibration.
(§2) AUC and peak values were obtained with Patchmaster (HEKA Elektronik Dr. Schulze GmbH). To determine IC50, the last single pulse in the pulse train corresponding to a given compound concentration was used. Obtained AUC and peak values in the presence of compound were normalized to control values in the absence of compound. Using Origin (OridinLab), IC50 was derived from data fit to Hill equation: Icompound/Icontrol=(100−A)/(1+([compound]/IC50)nH)+A, where IC50 value is the concentration at which current inhibition is half-maximal, [compound] is the applied compound concentration, A is the fraction of current that is not blocked and nH is the Hill coefficient.
On the technique in general: The patch-clamp technique gives a direct electrical read-out from membranes.

The next assay deals with T2, hERG channel (Homo sapiens, UniProt Q12809).
T2 construct: expressed in transfected cells
Description: hERG electrophysiology, automated whole-cell patch clamp (Patchliner). In kind it is cell-based. The protocol: This assay is used to evaluate the disclosed compounds' inhibition activities against the hERG channel.
CHO-K1 cells stably expressing hERG were grown in Ham's F-12 Medium with glutamine containing 10% heat-inactivated FBS, 1% penicillin/streptomycin, hygromycin (100 μg/ml) and G418 (100 μg/ml). Cells were grown in culture flasks at 37° C. in a 5% CO2-humidified incubator.
as §1
The voltage protocol (see Table 3) was designed to simulate voltage changes during a cardiac action potential with a 300 ms depolarization to +20 mV (analogous to the plateau phase of the cardiac action potential), a repolarization for 300 ms to −50 mV (inducing a tail current) and a final step to the holding potential of −80 mV. The pulse frequency was 0.3 Hz. Control (compound-free) and compound pulse trains for each compound concentration applied contained 70 pulses.
Whole-cell current recordings and compound application were enabled by means of an automated patch clamp platform Patchliner (Nanion). EPC 10 patch clamp amplifier (HEKA) along with Patchmaster software (HEKA Elektronik Dr. Schulze GmbH) was used for data acquisition. Data were sampled at 10 kHz without filtering. Increasing compound concentrations were applied consecutively to the same cell without washouts in between.
as §2, with “PEAK” for “peak”, “IC50” for “IC50,”, “Icompound/Icontrol=(100-A)/(1+([compound]/IC50)nH)+A,” for “Icompound/Icontrol=(100−A)/(1+([compound]/IC50)nH)+A,”, “IC50” for “IC50 value”
On the technique in general: The hERG channel carries a current that helps repolarise heart muscle cells.

The mark [1] stands for this setting: CHO-K1 cells stably expressing Kv1.3, 100 ms pulses from -90 mV to +40 mV, 0.1 Hz.
Setting [2] is: CHO-K1 cells stably expressing hERG, +20 mV 300 ms, -50 mV 300 ms tail current, 0.3 Hz.
Where [3] appears, read: Kv1.3 potassium channel, whole-cell patch clamp.
[4] abbreviates: hERG channel, whole-cell patch clamp.

Molecules are shown by their SMILES. A value given as a limit tells only on which side of the number the result lay.

Our source for the IC50 values is patent US20230049231A1 (priority 2019, published 2023).

T2 sequence (Q12809 whole entry): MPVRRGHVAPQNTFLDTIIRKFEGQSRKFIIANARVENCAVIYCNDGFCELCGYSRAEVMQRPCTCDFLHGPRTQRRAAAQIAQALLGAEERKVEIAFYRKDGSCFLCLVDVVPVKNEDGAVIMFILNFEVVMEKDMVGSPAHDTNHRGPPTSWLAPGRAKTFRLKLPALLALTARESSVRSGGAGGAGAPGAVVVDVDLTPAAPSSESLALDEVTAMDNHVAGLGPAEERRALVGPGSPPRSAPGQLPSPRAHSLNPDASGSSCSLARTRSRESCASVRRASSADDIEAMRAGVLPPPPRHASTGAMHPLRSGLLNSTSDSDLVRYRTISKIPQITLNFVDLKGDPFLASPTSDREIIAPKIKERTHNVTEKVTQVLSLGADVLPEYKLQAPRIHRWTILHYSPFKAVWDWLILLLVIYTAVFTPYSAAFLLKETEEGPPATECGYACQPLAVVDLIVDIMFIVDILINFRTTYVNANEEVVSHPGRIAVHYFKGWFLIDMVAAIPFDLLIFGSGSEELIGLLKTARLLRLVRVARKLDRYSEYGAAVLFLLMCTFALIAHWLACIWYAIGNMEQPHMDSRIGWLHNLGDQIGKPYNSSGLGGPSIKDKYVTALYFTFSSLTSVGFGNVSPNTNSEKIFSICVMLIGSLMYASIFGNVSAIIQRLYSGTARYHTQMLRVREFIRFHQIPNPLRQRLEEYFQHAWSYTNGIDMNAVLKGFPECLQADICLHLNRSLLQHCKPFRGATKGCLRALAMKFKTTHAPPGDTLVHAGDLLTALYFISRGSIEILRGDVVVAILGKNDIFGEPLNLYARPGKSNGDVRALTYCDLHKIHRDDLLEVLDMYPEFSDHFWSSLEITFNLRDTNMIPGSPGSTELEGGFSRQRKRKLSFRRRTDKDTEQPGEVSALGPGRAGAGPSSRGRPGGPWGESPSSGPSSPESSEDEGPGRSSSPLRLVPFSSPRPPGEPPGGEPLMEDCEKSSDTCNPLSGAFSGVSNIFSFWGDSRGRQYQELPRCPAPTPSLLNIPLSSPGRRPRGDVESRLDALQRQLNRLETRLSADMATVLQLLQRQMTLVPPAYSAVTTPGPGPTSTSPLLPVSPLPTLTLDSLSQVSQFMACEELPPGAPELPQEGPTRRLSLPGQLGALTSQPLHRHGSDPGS
T1 sequence (P22001 whole entry): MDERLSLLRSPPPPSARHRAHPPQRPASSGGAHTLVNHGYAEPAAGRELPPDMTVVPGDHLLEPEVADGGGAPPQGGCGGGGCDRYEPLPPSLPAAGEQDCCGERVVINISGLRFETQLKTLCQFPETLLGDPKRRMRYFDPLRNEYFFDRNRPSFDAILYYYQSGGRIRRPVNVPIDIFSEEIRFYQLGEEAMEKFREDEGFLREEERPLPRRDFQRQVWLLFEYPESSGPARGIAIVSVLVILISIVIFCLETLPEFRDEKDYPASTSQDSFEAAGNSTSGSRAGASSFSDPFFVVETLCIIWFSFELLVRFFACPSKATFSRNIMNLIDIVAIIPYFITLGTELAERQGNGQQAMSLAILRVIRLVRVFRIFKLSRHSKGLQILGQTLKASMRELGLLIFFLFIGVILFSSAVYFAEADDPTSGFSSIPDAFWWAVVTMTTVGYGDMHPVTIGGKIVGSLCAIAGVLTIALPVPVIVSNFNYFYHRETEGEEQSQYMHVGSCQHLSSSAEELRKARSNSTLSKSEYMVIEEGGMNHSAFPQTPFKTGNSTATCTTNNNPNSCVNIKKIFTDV

On to `N#CCC(=O)N1CC(=O)N2C[C@@H](c3c(O)ccc(Cl)c3Cl)C[C@H]2C1` [Compound 41, 3-[(7R,8aS)-7-(2,3-dichloro-6-hydroxypheny1)-4-oxo-hexahydropyrrolo[1,2-a]pyrazin-2-yl]-3-oxopropanenitrile], for which the 50% inhibitory concentration (IC50) (in general, the midpoint of a concentration-inhibition curve) against Kv1.3 potassium channel (setting [1]) is below 1000 nM; on hERG channel (setting [2]), above 30000 nM.

With `O=C(N1CC[C@@H](O)C1)N1CC(=O)N2C[C@@H](c3c(O)ccc(Cl)c3Cl)C[C@H]2C1` [Compound 101, (7R,8aS)-7-(2,3-dichloro-6-hydroxyphenyl)-2-[(3R)-3-hydroxypyrrolidine-1-carbonyl]-hexahydropyrro[1,2-a]pyrazine-4-one], the IC50 against Kv1.3 potassium channel (setting [3]) was below 1000 nM; against hERG channel (setting [4]), above 30000 nM. The like results for `O=C1C[C@H](CO)C[C@@H]2C[C@H](c3c(O)ccc(Cl)c3Cl)CN12` (single isomer, unassigned) [Compound 238] were, in that order, below 1000 nM and above 30000 nM. Consider `NC(=O)N1CC(=O)N2CC[C@@H](c3c(O)ccc(Cl)c3Cl)C[C@H]2C1` [Compound 96, (8R,9aS)-8-(2,3-dichloro-6-hydroxyphenyl)-4-oxo-hexahydro-1H-pyrido[1,2-a]pyrazine-2-carboxamide], for which the 50% inhibitory concentration (IC50) against Kv1.3 potassium channel (setting [3]) is below 1000 nM; on hERG channel (setting [4]) it was above 30000 nM.

As for `O=C1CC(O)C[C@@H]2C[C@H](c3c(O)ccc(Cl)c3Cl)CCN12` (stereo partly drawn) [Compound 250, (8R,9aS)-8-(2,3-dichloro-6-hydroxyphenyl)-2-hydroxy-octahydroquinolizin-4-one], the IC50 against Kv1.3 potassium channel (setting [3]) is below 1000 nM; at hERG channel (setting [4]) it was above 30000 nM.

`O=C1CN(C(=O)[C@H]2C[C@H](O)C2)C[C@@H]2C[C@H](c3c(O)ccc(Cl)c3Cl)CN12` (single isomer, unassigned; isomer 1) [Compound 27]: the 50% inhibitory concentration (IC50) is below 1000 nM on Kv1.3 potassium channel (setting [1]) and above 30000 nM against hERG channel (setting [2]). On to `O=C1O[C@H](CO)[C@@H]2C[C@H](c3c(O)ccc(Cl)c3Cl)CN12` (single isomer, unassigned) [Compound 254], for which the IC50 against Kv1.3 potassium channel (setting [3]) was below 1000 nM; on hERG channel (setting [4]), above 30000 nM.

On to `O=C1NC[C@@H]2C[C@H](c3c(O)ccc(Cl)c3Cl)CN12` [Compound 293, (6R,7aS)-6-(2,3-dichloro-6-hydroxyphenyl)-hexahydropyrrolo[1,2-c]imidazol-3-one], for which the concentration for half-maximal inhibition (IC50) on Kv1.3 potassium channel (setting [3]) is below 1000 nM; at hERG channel (setting [4]), above 30000 nM. `O=C(CO)N1CC[C@@H]2C[C@H](c3c(O)ccc(Cl)c3Cl)CN2C(=O)C1` [Compound 90, (8R,9aS)-8-(2,3-dichloro-6-hydroxyphenyl)-3-(2-hydroxyacetyl)-hexahydro-1H-pyrrolo[1,2-d][1,4]diazepin-5-one]: the IC50 on Kv1.3 potassium channel (setting [3]) was below 1000 nM. The same measure, in the same setting: in the case of `O=C1[C@@H](O)C[C@@H]2C[C@H](c3c(O)ccc(Cl)c3Cl)CN12` (single isomer, unassigned) [Compound 245] it was below 1000 nM. `O=C(O)C1CC(=O)N2C[C@@H](c3c(O)ccc(Cl)c3Cl)C[C@H]2C1` (stereo partly drawn) [Compound 229, (2R,8aS)-2-(2,3-dichloro-6-hydroxyphenyl)-5-oxo-hexahydro-1H-indolizine-7-carboxylic acid] displayed a half-inhibitory concentration (IC50) on Kv1.3 potassium channel (setting [3]) below 1000 nM.

Compound `O=C1CN(c2ncccc2CO)C[C@@H]2C[C@H](c3c(O)ccc(Cl)c3Cl)CN12` [Compound 174] registered a 50% inhibitory concentration (IC50) against Kv1.3 potassium channel (setting [3]) below 10000 nM. As for `C[C@@H](CO)C(=O)N1CC(=O)N2CC[C@H](c3c(O)ccc(Cl)c3Cl)C[C@@H]2C1` [Compound 3, (8S,9aR)-8-(2,3-dichloro-6-hydroxyphenyl)-2-((S)-3-hydroxy-2-methylpropanoyl)octahydro-4H-pyrido[1,2-a]pyrazin-4-one], on Kv1.3 potassium channel (setting [1]), the IC50 is below 1000 nM. For `O=C1OC[C@@H]2C[C@H](c3c(O)ccc(Cl)c3Cl)CCN12` [Compound 252, (7R,8aS)-7-(2,3-dichloro-6-hydroxyphenyl)-hexahydro-[1,3]oxazolo[3,4-a]pyridin-3-one], the IC50 against Kv1.3 potassium channel (setting [3]) was below 1000 nM. For the compound `O=C1N[C@H](CO)CN2CC[C@@H](c3c(O)ccc(Cl)c3Cl)C[C@@H]12` [Compound 6, (3S,8R,9aS)-8-(2,3-dichloro-6-hydroxyphenyl)-3-(hydroxymethyl)-octahydropyrido[1,2-a]pyrazin-1-one], the IC50 against Kv1.3 potassium channel (setting [1]) was below 10000 nM.

The compound `O=C1N(CCO)C[C@@H]2C[C@H](c3c(O)ccc(Cl)c3Cl)CN12` [Compound 290, (6R,7aS)-6-(2,3-dichloro-6-hydroxyphenyl)-2-(2-hydroxyethyl)hexahydro-3H-pyrrolo[1,2-c]imidazol-3-one] gave an IC50 at Kv1.3 potassium channel (setting [3]) below 10000 nM. With `O=C(CO)N1CC(=O)N2CC[C@H](c3c(O)ccc(Cl)c3Cl)C[C@@H]2C1` [Compound 48, (8S,9aR)-8-(2,3-dichloro-6-hydroxyphenyl)-2-(2-hydroxyacetyl)-hexahydro-1H-pyrido[1,2-a]pyrazin-4-one], the half-inhibitory concentration (IC50) against Kv1.3 potassium channel (setting [1]) is below 1000 nM. With `O=C1C(CO)C[C@@H]2C[C@H](c3c(O)ccc(Cl)c3Cl)CN12` (stereo partly drawn) [Compound 247, (6R,7aS)-6-(2,3-dichloro-6-hydroxyphenyl)-2-(hydroxymethyl)-hexahydropyrrolizin-3-one], the IC50 on Kv1.3 potassium channel (setting [3]) is below 1000 nM. With `CC(=O)NCC1OC[C@@H]2C[C@H](c3c(O)ccc(Cl)c3Cl)CCN2C1=O` (stereo partly drawn) [Compound 186, N-[[(8R,9aS)-8-(2,3-dichloro-6-hydroxyphenyl)-4-oxo-hexahydro-1H-pyrido[2,1-c][1,4]oxazin-3-yl]methyl]acetamide], on Kv1.3 potassium channel (setting [3]), the half-inhibitory concentration (IC50) is below 1000 nM. Still for that read-out and setting: next, `O=C1NCCC1N1CC(=O)N2C[C@@H](c3c(O)ccc(Cl)c3Cl)C[C@H]2C1` (stereo partly drawn) [Compound 109, 3-[(7R,8aS)-7-(2,3-dichloro-6-hydroxyphenyl)-4-oxo-hexahydropyrrolo [1,2-a]pyrazin-2-yl]pyrrolidin-2-one]: below 1000 nM.

On Kv1.3 potassium channel (setting [1]), `O=C1CNC[C@H]2C[C@@H](c3c(O)ccc(Cl)c3Cl)CCN12` [Compound 39] returned an IC50 below 1000 nM. With `N[C@@H]1C[C@@H]2C[C@H](c3c(O)ccc(Cl)c3Cl)CN2C1=O` (single isomer, unassigned) [Compound 249], on Kv1.3 potassium channel (setting [3]), the IC50 is below 1000 nM. In turn, `CN1C[C@@H]2C[C@H](c3c(O)ccc(Cl)c3Cl)CN2C1=O` [Compound 291, (6R,7aS)-6-(2,3-dichloro-6-hydroxyphenyl)-2-methyl-tetrahydro-1H-pyrrolo[1,2-c]imidazol-3-one] had an IC50 against Kv1.3 potassium channel (setting [3]) below 10000 nM. Take `O=C(CO)N1CC(=O)N2C[C@H](c3c(O)ccc(Cl)c3Cl)CC[C@H]2C1` (relative stereo) [Compound 13, (7S,9aS)-rel-7-(2,3-dichloro-6-hydroxyphenyl)-2-(2-hydroxyacetyl)-hexahydro-1H-pyrido[1,2-a]pyrazin-4-one]: on Kv1.3 potassium channel (setting [1]), the IC50 was below 1000 nM. The same measure, in the same setting: next, `CN(C)C(=O)N1CC(=O)N2C[C@@H](c3c(O)ccc(Cl)c3Cl)C[C@H]2C1` [Compound 30, (7R,8aS)-7-(2,3-dichloro-6-hydroxyphenyl)-N,N-dimethyl-4-oxohexahydropyrrolo[1,2-a]pyrazine-2(1H)-carboxamide]: below 1000 nM.
